This note sets out measurements from patent US7141596B2, “Inhibitors of proteins that bind phosphorylated molecules” (Incyte Corporation, priority 2003, dated 2006).

The experiment deals with T1, human PTP1B catalytic domain (residues 1–298) (Homo sapiens, UniProt P18031).
T1 construct: The catalytic domain (residues 1–298) of human PTP1B; His tag (N); made in house; host or cells: E. coli
T1 sequence (P18031 1-298): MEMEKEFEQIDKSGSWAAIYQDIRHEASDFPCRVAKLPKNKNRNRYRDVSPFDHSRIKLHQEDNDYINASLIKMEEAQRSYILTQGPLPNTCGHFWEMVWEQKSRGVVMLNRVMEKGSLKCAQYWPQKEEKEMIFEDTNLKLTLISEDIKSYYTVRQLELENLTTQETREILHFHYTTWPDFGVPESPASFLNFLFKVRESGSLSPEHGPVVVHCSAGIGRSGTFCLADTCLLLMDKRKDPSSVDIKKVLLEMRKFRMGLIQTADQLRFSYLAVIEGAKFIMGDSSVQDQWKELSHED
Put plainly: hPTP1B in vitro activity assay (pNPP dephosphorylation). The class given is biochemical. Particulars: Isomer 1 compared with Isomer 2 (5S/5R diastereomers separated by chiral HPLC).

Procedure: Compounds were serially diluted in DMSO and spotted into the assay plate. Both the enzyme and substrate were diluted into the assay buffer containing 25 mM tris-bis-propone (pH 7.0 @ rt) and 0.1 mg/ml of BSA. 40 of μL enzyme solution was added to the assay plate containing compounds and was incubated for 30 minutes. 40 μL of substrate solution was then added to the assay plate to initiate the reaction. The initial reaction rates of the dephosphorylation of p-nitrophenylphosphate to p-nitrophenol are measured by monitoring absorbance at 410 nm on a SpectraMax for 15–30 min.

For the molecule `O=C(O)C(F)(F)F.O=C(O)C(F)(F)F.O=C1C[C@@H](c2ccc(C[C@H](Nc3nc4cc(F)ccc4s3)c3nc4ccccc4[nH]3)cc2)S(=O)(=O)N1.O=C1C[C@H](c2ccc(C[C@H](Nc3nc4cc(F)ccc4s3)c3nc4ccccc4[nH]3)cc2)S(=O)(=O)N1` (single isomer, unassigned; isomer 1) [4.179 Isomer 1], the “relative biological activity of the separated diastereomers in the enzyme assay” value is “more biologically active”.
